Tests used:
Assay in all cases: Antibacterial activity (MIC)
Type in all cases: cell-based
[1] = test system: Ps. aeruginosa 10662; settings: Pseudomonas aeruginosa
[2] = test system: N catarrhalis 1502
[3] = test system: E. coli ESS; settings: Escherichia coli
[4] = test system: Ps aeruginosa Dalgleish 10-^2
[5] = test system: E. coli JT4; settings: Escherichia coli
[6] = test system: Ps. aeruginosa Dalgleish; settings: Pseudomonas aeruginosa
[7] = Pseudomonas aeruginosa, Ps. aeruginosa 10^-2

## CO[C@@]1(NC(=O)C(c2cc(N)c(O)c(O)c2)S(=O)(=O)O)C(=O)N2[C@@H](C(=O)O)C(C)(C)S[C@@H]21 (stereo partly drawn) [Example 1, Disodium 6,β-[R,S-2-(5-amino-3,4-dihydroxyphenyl)-2-sulphoacetamido]-6,α-methoxy penicillanate]
[1]
  MIC: 50 µg/mL
[2]
  MIC: < 0.2 µg/mL
[3]
  MIC: 5 µg/mL
[4]; Ps aeruginosa Dalgleish 10-^2
  MIC: 50 µg/mL
[5]
  MIC: 25 µg/mL

## CO[C@@]1(NC(=O)C(c2cc(O)c(O)c([N+](=O)[O-])c2)S(=O)(=O)O)C(=O)N2[C@@H](C(=O)O)C(C)(C)S[C@@H]21 (stereo partly drawn) [Example 2, Disodium 6,β-[R,S-2-(3,4-dihydroxy-5-nitrophenyl)-2-sulphoacetamido]-6,α-methoxypenicillanate]
[1]
  MIC: 5 µg/mL
[2]
  MIC: < 0.02 µg/mL
[3]
  MIC: 0.2 µg/mL
[4]; Ps aeruginosa Dalgleish 10-^2
  MIC: 1 µg/mL
[5]
  MIC: 2.5 µg/mL

## CO[C@@]1(NC(=O)[C@@H](c2cc(Cl)c(OC(C)=O)c(OC(C)=O)c2)S(=O)(=O)O)C(=O)N2[C@@H](C(=O)O)C(C)(C)S[C@@H]21 [Example 4v, Disodium 6,β-[R-2-(3-chloro-4,5-diacetoxyphenyl)-2-sulphoacetamido]-6,a-methoxypenicillanate]
[1]
  MIC: 0.5 µg/mL
[2]
  MIC: < 0.01 µg/mL
[3]
  MIC: 0.05 µg/mL
[4]; [7]
  MIC: 0.25 µg/mL
[5]
  MIC: 0.25 µg/mL

## CO[C@@]1(NC(=O)[C@@H](c2cc(O)c(O)c(Cl)c2)S(=O)(=O)O)C(=O)N2[C@@H](C(=O)O)C(C)(C)S[C@@H]21 [Example 4vi, Disodium 6,B-[R-2-(3-chloro-4,5-dihydroxyphenyl)-2-sulphoacetamido]-6,a-methoxypenicillanate]
[1]
  MIC: 2.5 µg/mL
[2]
  MIC: < 0.02 µg/mL
[3]
  MIC: 0.05 µg/mL
[4]; [7]
  MIC: 0.5 µg/mL
[5]
  MIC: 0.5 µg/mL

## CO[C@@]1(NC(=O)[C@@H](c2cc(OC(C)=O)c(OC(C)=O)cc2Cl)S(=O)(=O)O)C(=O)N2[C@@H](C(=O)O)C(C)(C)S[C@@H]21 [Example 5, Disodium 6,B-[R-2-(2-chloro-4,5-diacetoxyphenyl)-2-sulphoacetamido]-6,a-methoxypenicillanate]
[1]
  MIC: 5 µg/mL
[2]
  MIC: < 0.02 µg/mL
[3]
  MIC: 0.2 µg/mL
[4]; [7]
  MIC: 1 µg/mL
[5]
  MIC: 0.5 µg/mL

## CO[C@@]1(NC(=O)[C@@H](c2cc(OC(C)=O)c(OC(C)=O)cc2C)S(=O)(=O)O)C(=O)N2[C@@H](C(=O)O)C(C)(C)S[C@@H]21 [Example 6vi, Disodium 6,β-[R-2-(4,5-diacetoxy-2-methylphenyl)-2-sulphoacetamido]-6,a-methoxypenicillanate]
[1]
  MIC: 16 µg/mL
[3]
  MIC: 4 µg/mL
[5]
  MIC: 16 µg/mL
[6]
  MIC: 4 µg/mL

## CO[C@@]1(NC(=O)[C@H](c2cc(OC(C)=O)c(OC(C)=O)cc2C)S(=O)(=O)O)C(=O)N2[C@@H](C(=O)O)C(C)(C)S[C@@H]21 [Example 6vii, Disodium 6,β-[S-2-(4,5-diacetoxy-2-methylphenyl)-2-sulphoacetamido]-6,a-methoxypenicillanate]
[1]
  MIC: 128 µg/mL
[3]
  MIC: 32 µg/mL
[5]
  MIC: 64 µg/mL
[6]
  MIC: 128 µg/mL

## CO[C@@]1(NC(=O)[C@@H](c2cc(C)c(OC(C)=O)c(OC(C)=O)c2)S(=O)(=O)O)C(=O)N2[C@@H](C(=O)O)C(C)(C)S[C@@H]21 [Example 7, Disodium 6,β-[R-2-(4,5-diacetoxy-3-methylphenyl)-2-sulphoacetamido]-6,a-methoxypenicillanate]
[1]
  MIC: 16 µg/mL
[3]
  MIC: 0.5 µg/mL
[5]
  MIC: 8 µg/mL
[6]
  MIC: 8 µg/mL

## CO[C@@]1(NC(=O)[C@@H](c2cc(OC(C)=O)c(OC(C)=O)c(Cl)c2Cl)S(=O)(=O)O)C(=O)N2[C@@H](C(=O)O)C(C)(C)S[C@@H]21 [Example 8, Disodium 6,β-[R-2-(4,5-diacetoxy-2,3-dichlorophenyl)-2-sulphoacetamido]-6,a-methoxypenicillanate]
[1]
  MIC: 2 µg/mL
[3]
  MIC: 0.25 µg/mL
[5]
  MIC: 1 µg/mL
[6]
  MIC: 2 µg/mL

— patent EP0091302A1, “Beta-lactam derivatives” (BEECHAM GROUP PLC, priority 1982, dated 1983)
